Assay results: paper PMC2074382 (British Journal of Cancer, 1996)
Counter-ions that a name gives are not always drawn.

How the values were obtained:
[1] = test system: patients with a solid tumour; assay: Phase I study, toxicity (CTC criteria) of GI147211 30 min i.v. infusion daily x 5 every 3 weeks; type: in vivo, human
Excerpt: British Journal of Cancer (1996) 73, 744-750 O (C? 1996 Stockton Press All rights reserved 0007-0920/96 $12.00 Phase I and pharmacological study of the new topoisomerase I inhibitor G1147211, using a daily x 5 intravenous administration CJH Gerrits', GJ Creemers', JHM Schellens', P Wissel2, AS Th Planting', R Kunka2, K Selinger2, M de Boer-Dennert', Y Marijnen3, M Harteveld' and J Verweijl 'Department of Medical Oncology, Rotterdam Cancer Institute, Rotterdam, The Netherlands; 2Glaxo Wellcome Inc, Department of Clinical Pharmacology, NC, USA; 3Glaxo Wellcome Inc, Department of Clinical Research, Zeist, The Netherlands. Summary Topoisomerase I inhibitors are interesting anti-cancer agents with a novel mechanism of action. […] In subsequent patient cohorts the dose was escalated from 0.3 to 1.5 mg m-2 day-'. Pharmacokinetics analysis was performed on days 1 and 4 of the first course using a validated high- performance liquid chromatographic assay and non-compartmental methods. […] Its further development was stopped because of unpredictable and severe myelosuppression, gastrointestinal toxicity and haemorrhagic cystitis. In the late 1980s two discoveries brought about a renewal of interest in CPT; firstly, topoisomerase I was identified as the single cellular target of CPT (Hsiang et al., 1985; Hsiang and Liu, 1988) and, secondly, an overexpression of topoisomerase I was found in various tumour cell lines but not in normal tissues (Giovanella et al., 1989; Hirabayaski et al., 1992; Potmesil et al., 1988). Topoisomerase I is a nuclear enzyme that resolves topological problems of the torsionally strained (supercoiled) DNA (Slichenmyer et al., 1993). This is achieved by forming a covalent adduct between topoisome- rase I and the DNA, termed the cleavable complex. This catalytic intermediate creates single-strand DNA breaks, allowing the DNA molecule to rotate around the intact DNA strand at the cleavage site, leading to a relaxation of the DNA molecule and in this way replication, transcription and other DNA functions can proceed. These enzyme- bridged breaks are then resealed by topoisomerase I. CPT stabilises the cleavable complexes, thereby preventing resealing of single-strand DNA breaks in the presence of the drug (Covey et al., 1989; D'Arpa and Liu, 1989; Eng et al., 1988). Cytotoxicity is specific to the S-phase of the cell cycle because the double-strand breaks that occur during this phase are more difficult to repair in the presence of the drug (Horwitz and Horwitz, 1973). […] Other eligibility criteria included: (1) age>, 18 years; (2) an Eastern Cooperative Oncology Group (ECOG) performance status <2; (3) a predicted life expectancy of at least 3 months; (4) no previous anti-cancer therapy for at least 3 weeks (6 weeks for previous nitro- soureas or mitomycin C); (5) adequate haemato- poietic (WBC) 3 x 109 -', ANC > 1.5 x 109 1-' and platelets 100 x 10 1- 1), hepatic (bilirubin within normal limits, AST, ALT and/or alkaline phosphatase < 2.0 x normal), and renal (serum creatinine < 130 imol 1-') functions. All patients gave written informed consent.

[2] = animals, intravenous route; cited from earlier work
[3] = 0.3 mg m-2 day-1, 3 patients, 10 evaluable courses
[4] = 0.6 mg m-2 day-1, 3 patients, 18 evaluable courses
[5] = 0.9 mg m-2 day-1, 3 patients, 9 evaluable courses
[6] = 1.2 mg m-2 day-1, 6 patients, 15 evaluable courses
[7] = 1.2 mg m-2 day-1, n=6, Table III
[8] = 1.2 mg m-2 day-1, n=7, Table III
[9] = 1.5 mg m-2 day-1, 6 patients, 15 evaluable courses
[10] = 1.5 mg m-2 day-1, n=7, Table III
[11] = 1.5 mg m-2 day-1, n=13, Table III

For `CC[C@@]1(O)C(=O)OCc2c1cc1n(c2=O)Cc2c-1nc1cc3c(cc1c2CN1CCN(C)CC1)OCCO3` [GI147211, [7 - (methylpiperazinomethylene) - 10,11 - ethylene-dioxy-20(S)] camptothecin dihydrochloride], the “Leucocytes CTC grade 1, number of courses” value [1, 3] was 0, the “Leucocytes CTC grade 2, number of courses” value [1, 3] was 0 and the “Leucocytes CTC grade 3, number of courses” value [1, 3] was 0. The “Leucocytes CTC grade 4, number of courses” value [1, 3] was 0, the “Neutrophils CTC grade 1, number of courses” value [1, 3] was 0 and the “Neutrophils CTC grade 2, number of courses” value [1, 3] was 0. The “Neutrophils CTC grade 3, number of courses” value [1, 3] was 0, the “Neutrophils CTC grade 4, number of courses” value [1, 3] was 0 and the “Platelets CTC grade 1, number of courses” value [1, 3] was 0. For the same compound, the “Platelets CTC grade 2, number of courses” value [1, 3] was 0, the “Platelets CTC grade 3, number of courses” value [1, 3] was 0 and the “Platelets CTC grade 4, number of courses” value [1, 3] was 0. The “Leucocytes CTC grade 1, number of courses” value [1, 4] was 8, the “Leucocytes CTC grade 2, number of courses” value [1, 4] was 0 and the “Leucocytes CTC grade 3, number of courses” value [1, 4] was 0. The “Leucocytes CTC grade 4, number of courses” value [1, 4] was 0, the “Neutrophils CTC grade 1, number of courses” value [1, 4] was 4 and the “Neutrophils CTC grade 2, number of courses” value [1, 4] was 1. The “Neutrophils CTC grade 3, number of courses” value [1, 4] was 0, the “Neutrophils CTC grade 4, number of courses” value [1, 4] was 0 and the “Platelets CTC grade 1, number of courses” value [1, 4] was 1. The “Platelets CTC grade 2, number of courses” value [1, 4] was 0, the “Platelets CTC grade 3, number of courses” value [1, 4] was 0 and the “Platelets CTC grade 4, number of courses” value [1, 4] was 0. The “Leucocytes CTC grade 1, number of courses” value [1, 5] was 3, the “Leucocytes CTC grade 2, number of courses” value [1, 5] was 1 and the “Leucocytes CTC grade 3, number of courses” value [1, 5] was 1. The “Leucocytes CTC grade 4, number of courses” value [1, 5] was 0, the “Neutrophils CTC grade 1, number of courses” value [1, 5] was 0 and the “Neutrophils CTC grade 2, number of courses” value [1, 5] was 4. The “Neutrophils CTC grade 3, number of courses” value [1, 5] was 1, the “Neutrophils CTC grade 4, number of courses” value [1, 5] was 0 and the “Platelets CTC grade 1, number of courses” value [1, 5] was 4. The “Platelets CTC grade 2, number of courses” value [1, 5] was 2, the “Platelets CTC grade 3, number of courses” value [1, 5] was 1 and the “Platelets CTC grade 4, number of courses” value [1, 5] was 0. The “ANC nadir, range” value ([1]; 1.2 mg m-2 day-1) was 0.08-5.6 x 109 l-1, the “grade 3-4 neutropenia, courses” value ([1]; 1.2 mg m-2 day-1) was 7/15 and the “grade 3-4 thrombocytopenia, courses” value ([1]; 1.2 mg m-2 day-1) was 6/15. For the same compound, the “median ANC nadir” value ([1]; 1.2 mg m-2 day-1) was 1.29e+09 L⁻¹, the median platelet nadir ([1]; 1.2 mg m-2 day-1) was 7.4e+10 L⁻¹ and the “platelet nadir, range” value ([1]; 1.2 mg m-2 day-1) was 33-379 x 109 l-1. The “subsequent courses postponed owing to prolonged myelosuppression” value ([1]; 1.2 mg m-2 day-1) was 6/15, the “Leucocytes CTC grade 1, number of courses” value [1, 6] was 1 and the “Leucocytes CTC grade 2, number of courses” value [1, 6] was 1. For the same compound, the “Leucocytes CTC grade 3, number of courses” value [1, 6] was 4, the “Leucocytes CTC grade 4, number of courses” value [1, 6] was 2 and the “Neutrophils CTC grade 1, number of courses” value [1, 6] was 2. The “Neutrophils CTC grade 2, number of courses” value [1, 6] was 2, the “Neutrophils CTC grade 3, number of courses” value [1, 6] was 1 and the “Neutrophils CTC grade 4, number of courses” value [1, 6] was 6. The “Platelets CTC grade 1, number of courses” value [1, 6] was 0, the “Platelets CTC grade 2, number of courses” value [1, 6] was 1 and the “Platelets CTC grade 3, number of courses” value [1, 6] was 6. For the same compound, the “Platelets CTC grade 4, number of courses” value [1, 6] was 0, the “Day nadir, thrombocytopenia (range)” value [1, 7] was 15 (10-19) day and the “Median day of occurrence of grade 3-4 thrombocytopenia (range)” value [1, 7] was 15 (15-15) day. The “Median number of days from grade 3-4 to recovery > grade 2 thrombocytopenia (range)” value [1, 7] was 7 (2-8) days, the “Day nadir, neutropenia (range)” value [1, 8] was 22 (13-22) day and the “Median day of occurrence of grade 3-4 neutropenia (range)” value [1, 8] was 15 (10-19) day. The “Median number of days from grade 3-4 to recovery > grade 2 neutropenia (range)” value [1, 8] was 10 (1_10) days, the “ANC nadir, range” value ([1]; 1.5 mg m-2 day-1) was 0.01-1.7 x 109 l-1 and the “grade 3-4 neutropenia, courses” value ([1]; 1.5 mg m-2 day-1) was 13/15. The “grade 3-4 neutropenia, per cent of courses” value ([1]; 1.5 mg m-2 day-1) was 86%, the “median ANC nadir” value ([1]; 1.5 mg m-2 day-1) was 9e+07 L⁻¹ and the median platelet nadir ([1]; 1.5 mg m-2 day-1) was 6.2e+10 L⁻¹. The “platelet nadir, range” value ([1]; 1.5 mg m-2 day-1) was 10-116 x 109 l-1, the “thrombocytopenia complicated by gastrointestinal bleeding” value ([1]; 1.5 mg m-2 day-1) was “two” and the “thrombocytopenia grade 3-4, courses” value ([1]; 1.5 mg m-2 day-1) was 7/15. The “thrombocytopenia grade 3-4, per cent of courses” value ([1]; 1.5 mg m-2 day-1) was 46%, the “treatment delay, courses” value ([1]; 1.5 mg m-2 day-1) was 5 of the 15 courses and the “Leucocytes CTC grade 1, number of courses” value [1, 9] was 0. For the same compound, the “Leucocytes CTC grade 2, number of courses” value [1, 9] was 9, the “Leucocytes CTC grade 3, number of courses” value [1, 9] was 3 and the “Leucocytes CTC grade 4, number of courses” value [1, 9] was 3. For the same compound, the “Neutrophils CTC grade 1, number of courses” value [1, 9] was 2, the “Neutrophils CTC grade 2, number of courses” value [1, 9] was 0 and the “Neutrophils CTC grade 3, number of courses” value [1, 9] was 2. The “Neutrophils CTC grade 4, number of courses” value [1, 9] was 11, the “Platelets CTC grade 1, number of courses” value [1, 9] was 2 and the “Platelets CTC grade 2, number of courses” value [1, 9] was 6. For the same compound, the “Platelets CTC grade 3, number of courses” value [1, 9] was 4, the “Platelets CTC grade 4, number of courses” value [1, 9] was 3 and the “Day nadir, thrombocytopenia (range)” value [1, 10] was 15 (13 15) day. The “Median day of occurrence of grade 3-4 thrombocytopenia (range)” value [1, 10] was 15 (10-15) day, the “Median number of days from grade 3-4 to recovery > grade 2 thrombocytopenia (range)” value [1, 10] was 8 (5-12) days and the “Day nadir, neutropenia (range)” value [1, 11] was 15 (13 -22) day. For the same compound, the “Median day of occurrence of grade 3-4 neutropenia (range)” value [1, 11] was 10 (5-25) day, the “Median number of days from grade 3-4 to recovery > grade 2 neutropenia (range)” value [1, 11] was 11 (4-25) days and the infectious complications ([1]; 1.5 mg m-2 day-1, two life-threatening septic) was “Three”. The maximal tolerated dose ([1]; 30 min i.v. infusion daily x 5, every 3 weeks) was 1.2 mg m-2 day-1, the “severity of nausea and vomiting” value ([1]; CTC grade) was “never worse than grade 1-2” and the cumulative myelotoxicity ([1]; all dose levels) was “not observed”. The “mild headache, courses” value ([1]; all dose levels) was “eight”, the “mild headache, per cent of courses” value ([1]; all dose levels) was 12% and the “nausea, per cent of given courses” value ([1]; all dose levels) was 44%. For the same compound, the other non-haematological toxicities ([1]; all dose levels) was “no diarrhoea, mucositis, liver or renal toxicity”, the “vomiting, per cent of given courses” value ([1]; all dose levels) was 22% and the “nausea, number of given courses” value ([1]; all dose levels, 67 courses) was 30 courses. The “vomiting, number of given courses” value ([1]; all dose levels, 67 courses) was 15 courses, the dose-limiting toxicities ([1]; at 1.5 mg m-2 day-1) was “neutropenia and thrombocytopenia” and the myelotoxicity ([1]; first two dose levels (0.3, 0.6 mg m-2 day-1)) was “No myelotoxicity”. The “alopecia grade 1” value ([1]; highest two dose levels) was “three”, the anaemia ([1]; in vivo) was “occurred frequently but was never severe” and the “recommended dose for phase II studies” value ([1]; x 5 every 3 weeks) was 1.2 mg m-2. For the same compound, the “main and dose-limiting toxicity” value [2] was “myelosuppression”.
